Consider six molecules from patent US12227501B2, “3-amino-2-[2-(acylamino)pyridin-4-yl]-1,5,6,7-tetrahydro-4h-pyrrolo[3,2-c]pyridin-4-one as CSNK1 inhibitors” (Bayer Aktiengesellschaft, priority 2019, dated 2025).

“And” between values parts separate entries of the source, which are not always exact repeats. Equal values may be shown once. Read-outs that look alike come from different tables or passages of the source.

What all share (format): biochemical
Assay [1] concerns the target T1, human CSNK1A1 (Homo sapiens (Human), UniProt P48729). In words: CSNK1A1 Assay 2 (ADP-Glo, 1 μM ATP). Conditions: substrate biotin-Ahx-KRRRAL-pS-VASLPGL, read-out: CSNK1A1 Assay 2 IC50 [mol/l] (median). In outline:
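Full-length human CSNK1A1 as an N-terminal GST fusion (baculovirus/insect cells) with biotinylated peptide substrate biotin-Ahx-KRRRAL-pS-VASLPGL and 1 μM ATP, in HEPES pH 7.5 buffer. Compounds were pre-incubated with enzyme (~0.0375 ng/μL) for 15 min at 22 °C. Generated ADP was read by ADP-Glo luminescence as the activity measure.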

Assay [2] concerns the target wild-type Epidermal Growth Factor Receptor (EGFR) (Homo sapiens (Human), UniProt P00533). In words: WT-EGFR Kinase Assay (TR-FRET, 2 mM ATP).
The target in assay [3] is T1, human CSNK1A1. In words: CSNK1A1 High ATP Assay (ADP-Glo, 1 mM ATP). Conditions: read-out: CSNK1A1 high ATP assay IC50 [mol/l] (median). In outline:
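GST-tagged full-length human CSNK1A1 from baculovirus-infected insect cells (typically about 0.4 ng/μL), pre-incubated with compound 15 min at 22 °C. Reaction with biotinylated peptide biotin-Ahx-KRRRAL-pS-VASLPGL at 1 mM ATP. ADP formed read by ADP-Glo luminescence.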

The next assay has as its target human CSNK1D (Homo sapiens (Human), UniProt P48730). In words: CSNK1D Assay (ADP-Glo, 1 μM ATP). Conditions: read-out: CSNK1D IC50 [mol/l] (median). In outline: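 GST-tagged full-length human CSNK1D from baculovirus-infected insect cells, typically ~0.5 ng/μL, with biotinylated peptide substrate and 1 μM ATP in HEPES pH 7.5 buffer. Compound is preincubated with enzyme 15 min at 22 °C. ADP formed is quantified by ADP-Glo luminescence.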

Where [4] appears, read: EGFR Wildtyp- 2 mM ATP IC50 [mol/l] (median).
The mark [5] stands for this setting: read-out: EGFR Wildtyp- 2 mM ATP IC50 [mol/l] (median).

Chain of human CSNK1D (P48730 whole entry): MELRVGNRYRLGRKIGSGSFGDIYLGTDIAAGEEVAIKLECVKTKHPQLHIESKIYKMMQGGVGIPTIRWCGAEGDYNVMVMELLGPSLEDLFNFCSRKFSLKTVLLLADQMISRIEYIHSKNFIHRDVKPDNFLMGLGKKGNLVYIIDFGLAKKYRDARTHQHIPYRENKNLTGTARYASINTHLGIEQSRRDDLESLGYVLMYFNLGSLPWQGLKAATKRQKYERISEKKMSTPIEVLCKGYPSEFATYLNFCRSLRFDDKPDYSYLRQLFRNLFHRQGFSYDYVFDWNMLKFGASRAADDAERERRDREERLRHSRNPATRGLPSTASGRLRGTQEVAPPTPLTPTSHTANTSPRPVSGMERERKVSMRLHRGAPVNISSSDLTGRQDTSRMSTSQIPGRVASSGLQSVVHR
T1 sequence (P48729 whole entry, the tested form may be a part): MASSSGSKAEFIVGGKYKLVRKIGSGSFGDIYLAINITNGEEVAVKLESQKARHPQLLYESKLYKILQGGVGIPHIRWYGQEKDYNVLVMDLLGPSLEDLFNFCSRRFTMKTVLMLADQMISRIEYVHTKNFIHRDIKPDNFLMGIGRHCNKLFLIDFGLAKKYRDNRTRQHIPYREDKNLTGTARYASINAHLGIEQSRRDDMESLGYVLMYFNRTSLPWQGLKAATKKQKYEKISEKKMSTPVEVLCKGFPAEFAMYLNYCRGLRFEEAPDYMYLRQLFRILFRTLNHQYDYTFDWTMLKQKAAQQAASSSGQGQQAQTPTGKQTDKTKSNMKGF
Chain of wild-type Epidermal Growth Factor Receptor (EGFR) (P00533 669-1210): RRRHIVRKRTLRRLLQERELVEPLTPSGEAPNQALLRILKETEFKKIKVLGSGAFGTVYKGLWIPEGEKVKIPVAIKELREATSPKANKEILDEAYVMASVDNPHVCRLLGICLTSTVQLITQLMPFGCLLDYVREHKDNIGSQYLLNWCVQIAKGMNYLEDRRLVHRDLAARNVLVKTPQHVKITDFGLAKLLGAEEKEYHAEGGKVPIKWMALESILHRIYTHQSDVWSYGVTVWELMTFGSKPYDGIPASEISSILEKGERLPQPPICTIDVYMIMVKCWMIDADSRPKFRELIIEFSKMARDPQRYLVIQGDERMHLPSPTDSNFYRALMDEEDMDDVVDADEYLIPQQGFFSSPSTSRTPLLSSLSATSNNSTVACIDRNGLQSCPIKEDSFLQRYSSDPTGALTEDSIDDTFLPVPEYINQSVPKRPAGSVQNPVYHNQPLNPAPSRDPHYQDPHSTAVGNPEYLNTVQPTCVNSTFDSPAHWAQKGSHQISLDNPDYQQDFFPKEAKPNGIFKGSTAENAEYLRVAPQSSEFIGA

As to `CC1(C)Cc2[nH]c(-c3ccnc(NC(=O)C(CN)c4ccc(F)cc4)c3)c(Nc3ccccc3)c2C(=O)N1` (single isomer, unassigned; enantiomer 1) [Example 140, 3-amino-N-[4-(3-anilino-6,6-dimethyl-4-oxo-4,5,6,7-tetrahydro-1H-pyrrolo[3,2-c]pyridin-2-yl)pyridin-2-yl]-2-(4-fluorophenyl)propanamide (Enantiomer 1)], the IC50 is 4.1 nM on human CSNK1A1 [1], over 20000 nM in assay [2] (setting [4]), 56.9 nM at human CSNK1A1 [3] and 9.95 nM at human CSNK1D.

Turning to `Cc1ccccc1Nc1c(-c2ccnc(NC(=O)C(CC(F)F)c3ccc(F)cc3)c2)[nH]c2c1C(=O)NC1(CCC1)C2` (single isomer, unassigned; enantiomer 1) [Example 144, (−)-4,4-difluoro-2-(4-fluorophenyl)-N-{4-[3′-(2-methylanilino)-4′-oxo-1′,4′,5′,7′-tetrahydrospiro[cyclobutane-1,6′-pyrrolo[3,2-c]pyridin]-2′-yl]pyridin-2-yl}butanamide-(Enantiomer 1)], the IC50 on human CSNK1A1 [1] is 80.7 nM; in assay [2] (setting [4]) it was over 20000 nM; on human CSNK1A1 [3] it was 5060 nM; on human CSNK1D it was 82 nM.

For the molecule `O=C1NC2(CC2)Cc2[nH]c(-c3ccnc(NC(=O)C(CC(F)F)c4ccc(F)cc4)c3)c(Nc3ccccc3)c21` (single isomer, unassigned; enantiomer 1) [Example 148, N-[4-(3′-anilino-4′-oxo-1′,4′,5′,7′-tetrahydrospiro[cyclopropane-1,6′-pyrrolo[3,2-c]pyridin]-2′-yl)pyridin-2-yl]-4,4-difluoro-2-(4-fluorophenyl)butanamide (Enantiomer 1)], the IC50 at human CSNK1A1 [1] was 8.82 nM; in assay [2] (setting [4]), 3400 nM; at human CSNK1A1 [3], 12.8 nM; at human CSNK1D, 8.31 nM.

In the case of `CC(C(=O)Nc1cc(-c2[nH]c3c(c2Nc2ccccc2)C(=O)N(C)C2(CCC2)C3)ccn1)c1ccc(F)cc1` (single isomer, unassigned; enantiomer 1) [Example 158, (−)-N-[4-(3′-anilino-5′-methyl-4′-oxo-1′,4′,5′,7′-tetrahydrospiro[cyclobutane-1,6′-pyrrolo[3,2-c]pyridin]-2′-yl)pyridin-2-yl]-2-(4-fluorophenyl)propanamide (Enantiomer 1)], the IC50 at human CSNK1A1 [1] is 239 nM and 263 nM and 52.5 nM and 67.7 nM; in assay [2] (setting [4]) it was over 20000 nM; on human CSNK1A1 [3], > 1630 nM and 5570 nM; on human CSNK1D, 188 nM.

As for `CC1(C)Cc2[nH]c(-c3ccnc(NC(=O)C(CC(F)F)c4ccc(F)cc4)c3)c(Nc3cccc(F)c3)c2C(=O)N1` (single isomer, unassigned; enantiomer 2) [Example 121, 4,4-difluoro-N-{4-[3-(3-fluoroanilino)-6,6-dimethyl-4-oxo-4,5,6,7-tetrahydro-1H-pyrrolo[3,2-c]pyridin-2-yl]pyridin-2-yl}-2-(4-fluorophenyl)butanamide (Enantiomer 2)], the IC50 was 70.1 nM at human CSNK1A1 [1], over 20000 nM in assay [2] (setting [5]), 10200 nM at human CSNK1A1 [3] and 63.5 nM on human CSNK1D.

Turning to `O=C1NC2(CCC2)Cc2[nH]c(-c3ccnc(NC(=O)C(CC(F)F)c4ccc(F)cc4)c3)c(Nc3cccc(F)c3Cl)c21` (single isomer, unassigned; enantiomer 2) [Example 125, (+)-N-{4-[3′-(2-chloro-3-fluoroanilino)-4′-oxo-1′,4′,5′,7′-tetrahydrospiro[cyclobutane-1,6′-pyrrolo[3,2-c]pyridin]-2′-yl]pyridin-2-yl}-4,4-difluoro-2-(4-fluorophenyl)butanamide (Enantiomer 2)], the IC50 at human CSNK1A1 [1] was 10.5 nM; in assay [2] (setting [5]) it was over 20000 nM; at human CSNK1A1 [3], 12.1 nM; on human CSNK1D it was 9.39 nM.
